Bridge positions count the residues as written; N and C are the ends. Ends that are not written are not given here. Peptide text beside a SMILES is read from it.
Assays:
[1] = tested on: serum calcium concentration
Experimental: Rats were divided into four groups of seven animals, and each group was assigned at random to a dose of standard or test solution. Low and high doses were chosen from the linear portion of the dose-response curve. For the salmon calcitonin standard, the values were 0.7 and 2.1 mcg. peptide/100 g. body weight (BW). This dose approximates 3 and 9 MU/100 g. BW. Peptides were given by subcutaneous injection (0.2 ml/100 g. BW) and blood was withdrawn 1 hour later for serum calcium determination. Sera are processed and analyzed within two hours of collection.

[2] = literature values; cited from earlier work

| Compound | hypocalcemic potency [2] | further results |
| --- | --- | --- |
| CC(C)C[C@H](NC(=O)[C@H](CCCCN)NC(=O)CNC(=O)[C@H](CC(C)C)NC(=O)[C@@H](NC(=O)[C@@H]1CSSC[C@H](N)C(=O)N[C@@H](CO)C(=O)N[C@@H](CC(N)=O)C(=O)N[C@@H](CC(C)C)C(=O)N[C@@H](CO)C(=O)N[C@@H]([C@@H](C)O)C(=O)N1)C(C)C)C(=O)N[C@@H](CO)C(=O)N[C@@H](CCC(N)=O)C(=O)N[C@@H](CCC(=O)O)C(=O)N[C@@H](CC(C)C)C(=O)N[C@@H](Cc1c[nH]cn1)C(=O)N[C@@H](CCCCN)C(=O)N[C@@H](CC(C)C)C(=O)N[C@@H](CCC(N)=O)C(=O)N[C@H](C(=O)N[C@@H](Cc1ccc(O)cc1)C(=O)N1CCC[C@H]1C(N)=O)[C@@H](C)O [calcitonin-(1-23)-peptide amide, Calcitonin-(1-23)-peptide amide] (H-CSNLSTCVLGKLSQELHKLQTYP-NH2; disulfide 1-7) | – | biological potency ([1]; rat, in vivo, sc): 11.5 IU/mg |
| (1,7-α-L-aminosuberic acid) eel calcitonin | about 3400 Iu/mg | – |
| eel calcitonin (CSNLSTCVLGKLSQELHKLQTYPRTDVGAGTP-NH2; disulfide 1-7; ends not checked; UniProt P01262 1-32, looked up) [synthetic eel calcitonin, synthetic eel calcitonin of Monikawa et al] | around 4300 Iu/mg | – |
| CC(C)C[C@H](NC(=O)[C@H](CCCCN)NC(=O)CNC(=O)[C@H](CC(C)C)NC(=O)[C@@H](NC(=O)[C@@H]1CSSC[C@H](N)C(=O)N[C@@H](CO)C(=O)N[C@@H](CC(N)=O)C(=O)N[C@@H](CC(C)C)C(=O)N[C@@H](CO)C(=O)N[C@@H]([C@@H](C)O)C(=O)N1)C(C)C)C(=O)N[C@@H](CO)C(=O)N[C@@H](CCC(N)=O)C(=O)N[C@@H](CCC(=O)O)C(=O)N[C@@H](CC(C)C)C(=O)N[C@@H](Cc1c[nH]cn1)C(=O)N[C@@H](CCCCN)C(=O)N[C@@H](CC(C)C)C(=O)N[C@@H](CCC(N)=O)C(=O)N[C@H](C(=O)N[C@@H](Cc1ccc(O)cc1)C(=O)N1CCC[C@H]1C(=O)N[C@@H](CCCNC(=N)N)C(=O)N[C@H](C(=O)N[C@@H](CC(N)=O)C(=O)N[C@H](C(=O)NCC(=O)N[C@@H](CO)C(=O)NCC(=O)N[C@H](C(=O)N1CCC[C@H]1C(N)=O)[C@@H](C)O)[C@@H](C)O)[C@@H](C)O)[C@@H](C)O [standard salmon calcitonin, Salmon calcitonin] | – | potency of the standard, independently determined ([1]; standard salmon calcitonin used, independently determined): greater than 4,000 IU/mg |

Reference: patent US4605515A, “Calcitonin-(1-23)-peptide amide” (Armour Pharmaceutical Company, priority 1984, dated 1986)
